According to patent EP1377579B1 (Aventis Pharmaceuticals Inc., priority 2000, dated 2002):
Counter-ions that a name gives are not always drawn. Like-named read-outs stand apart in the source and are kept apart here.

Key:
[1] = tested on: NCI-H460; experiment: In vitro proliferation assay (MTT), NCI-H460; type: cell-based; settings: Homo sapiens, NCI-H460; MTT assay; value (SD, n) where given; read-out: H-460 Lung (IC50 µM)
Procedure: (§1) The proliferation of tumor cells can be measured using a tetrazolium salt-based assay known as the MTT (3-[4,5-Dimethylthiazol-2-yl]-2,5-diphenyltetrazolium bromide) assay. The proliferation test is performed essentially as described by Carmichael et al., Cancer Res. 47: 936-942, 1987. For the assay, the cell lines are plated onto 96 well plates at 1000 to 2500 cells/well (depending on the properties of the individual cell lines), left to attach and recover overnight. […] After 3 days, the cells are incubated with MTT dye (3-[4,5-Dimethylthiazol-2-yl]-2,5-diphenyltetrazolium bromide, Sigma # M5655, 10 mg/ml in Hank's Buffered Saline) to estimate the amount of live cells remaining vs. concentration for the test compounds. Specifically, MTT solution is added to a final concentration of […] and the plates incubated at 37 C for 2 to 4 hr. The MTT and culture medium is then removed from the cultures and 200 µl of DMSO is added to solubilize the dye from the cell layer. The absorbance at 570 nm is determined for each culture using a Spectramax plate reader (Molecular Devices).
(§2) IC50s were determined from the raw data from either the MTT or SRB assays.
All of the cell lines were obtained from American Type Tissue Collection, with the ATCC accession number in parentheticals. MCF-7 and MDA-MB-231 cells were grown in improved minimum essential medium (Biofluids) without phenol red, supplemented with 5 % fetal bovine serum, 0.01 mg/ml gentamicin and 3 mM L-glutamine. All of the other cell lines were grown in RPMI 1640 medium (Life Technologies) supplemented with 5 % fetal bovine serum, 0.01 mg/ml gentamicin and 3 mM L-glutamine TABLE 3

[2] = tested on: PC-3; experiment: In vitro proliferation assay (MTT), PC-3; type: cell-based, human; settings: value (SD, n) where given, read-out: PC-3 Prostate (IC50 µM)
Summary of the method: (§3)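 Tetrazolium (MTT) reduction measures live cells remaining after 3 days with test compound, following overnight attachment at 1000–2500 cells/well. Dye is taken up in DMSO and read at 570 nm.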

[3] = target: cdk2/cyclin E (Homo sapiens, UniProt P24941); experiment: Cyclin-dependent kinase assay, cdk2/cyclin E
Procedure: The insect cell (Sf9) expression is optimized for each of the CDK/cyclin pairs according to the manufacturer's protocols (Life Technologies).
The viruses are added to the cells and the culture is incubated at 27°C for the desired time. The cells are harvested by centrifugation at 3000 rpm for 10 minutes. The cells are snap frozen on dry ice and stored at - 80°C.
Cell extracts are made following a standard procedure. The cell pellet is resuspended in lysis buffer (50 mM HEPES, pH 8.0, 10 mM MgCl2, 1 mM DTT, 2.5 mM EGTA, 1 mM EDTA, 10 mM β-glycerophosphate, 1 mM sodium vanadate, 1 mM sodium fluoride, 1 x Protease inhibitor cocktail). The cells are lysed using the microfluidizer (Microfluidics) for 20 minutes. Cell debris is removed by centrifugation at 100,000 x g. The cell extracts are aliquoted in 1 ml aliquots, frozen on dry ice, and stored at -80°C.
The kinase reactions are performed following a standard procedure. The enzyme and inhibitor are diluted in kinase buffer (50 mM HEPES, pH 8.0, 10 mM MgCl2, 2.5 mM EGTA, 10 mM β-glycerophosphate, 1 mM sodium vanadate, 1 mM sodium fluoride, and 1 mM DTT) and pre-incubated for 30 minutes. The cdk2 and cdk4 enzyme activities are assayed using 500 ng of the GST-pRb substrate (see description below) in the presence of 10 µM cold ATP and 1 µCi of [γ-^33P] ATP for 30 minutes at room temperature. […] The reactions are terminated by the addition of 50 µL of 10 mM cold ATP to stop the reactions. The reactions are transferred to a pre-soaked 96-well multi-screen plate containing 30 µL of 100% TCA per well. After incubation for one hour at room temperature, the plates are washed twice with 200 µl of 20% TCA, followed by 200 µl of 10% TCA and finally with 200 µl of 5% TCA. After drying the plates at room temperature, the filter plates are placed in adapter plates (Packard) and 40 µl of Microscint-O® (Packard) is added to each well.

[4] = target: cdk4/cyclin D1 (Homo sapiens, UniProt P11802); experiment: Cyclin-dependent kinase assay, cdk4/cyclin D1; type: biochemical
cdk4/cyclin D1, sequence (P11802 whole entry): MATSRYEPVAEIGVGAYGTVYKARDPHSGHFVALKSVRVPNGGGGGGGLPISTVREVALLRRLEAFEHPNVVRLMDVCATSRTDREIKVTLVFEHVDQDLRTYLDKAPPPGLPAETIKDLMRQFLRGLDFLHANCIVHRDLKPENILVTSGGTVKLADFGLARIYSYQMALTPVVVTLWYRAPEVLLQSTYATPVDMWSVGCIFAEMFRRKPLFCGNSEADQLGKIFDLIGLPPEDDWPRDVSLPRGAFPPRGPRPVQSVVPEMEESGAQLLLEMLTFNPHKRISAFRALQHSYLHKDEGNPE
cdk4/cyclin D1, sequence (P24385 whole entry partner): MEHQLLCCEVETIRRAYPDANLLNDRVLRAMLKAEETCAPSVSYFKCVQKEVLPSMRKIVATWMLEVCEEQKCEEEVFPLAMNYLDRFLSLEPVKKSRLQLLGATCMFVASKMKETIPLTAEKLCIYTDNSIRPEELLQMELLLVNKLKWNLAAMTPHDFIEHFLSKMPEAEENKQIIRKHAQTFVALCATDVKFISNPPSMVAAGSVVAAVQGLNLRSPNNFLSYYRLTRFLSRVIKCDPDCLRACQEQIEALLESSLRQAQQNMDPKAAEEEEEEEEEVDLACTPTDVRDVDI

[5] = target: cdk1/cyclin B (Homo sapiens, UniProt P06493); experiment: Cyclin-dependent kinase assay, cdk1/cyclin B
cdk1/cyclin B, sequence (P06493 whole entry): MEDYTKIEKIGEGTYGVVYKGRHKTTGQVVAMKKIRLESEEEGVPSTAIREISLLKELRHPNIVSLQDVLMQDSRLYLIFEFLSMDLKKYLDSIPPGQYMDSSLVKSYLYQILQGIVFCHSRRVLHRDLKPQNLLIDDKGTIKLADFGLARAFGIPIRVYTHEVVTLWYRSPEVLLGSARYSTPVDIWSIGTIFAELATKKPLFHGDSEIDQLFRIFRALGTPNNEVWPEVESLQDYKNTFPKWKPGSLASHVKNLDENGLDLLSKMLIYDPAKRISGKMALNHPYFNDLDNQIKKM
cdk1/cyclin B, sequence (P14635 whole entry partner): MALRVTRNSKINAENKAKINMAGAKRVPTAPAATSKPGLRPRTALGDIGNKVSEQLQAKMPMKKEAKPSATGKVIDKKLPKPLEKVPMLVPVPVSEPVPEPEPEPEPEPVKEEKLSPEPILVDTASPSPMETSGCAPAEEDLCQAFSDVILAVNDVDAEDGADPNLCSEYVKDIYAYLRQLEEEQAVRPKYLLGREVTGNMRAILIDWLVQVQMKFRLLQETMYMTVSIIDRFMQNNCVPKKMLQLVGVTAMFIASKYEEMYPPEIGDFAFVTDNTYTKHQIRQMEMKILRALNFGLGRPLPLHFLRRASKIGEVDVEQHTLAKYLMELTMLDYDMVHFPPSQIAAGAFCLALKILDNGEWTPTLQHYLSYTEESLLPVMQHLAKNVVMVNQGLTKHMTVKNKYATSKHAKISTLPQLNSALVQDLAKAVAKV

[6] = tested on: Colo-205; experiment: In vitro proliferation assay (MTT), Colo-205; type: cell-based; settings: Homo sapiens, COLO 205; MTT assay; value (SD, n) where given; read-out: Colo-205 Colon (IC50 µM)
Procedure: as §1, §2

[7] = tested on: MDA-MB-435; experiment: In vitro proliferation assay (MTT), MDA-MB-435; type: cell-based, human; settings: value (SD, n) where given, read-out: MB-435 Breast (IC50 µM)
Summary of the method: as §3

[8] = in vivo; settings: mouse, in vivo, iv, 3 mg/kg
Procedure: Male mice are given single intravenous cassette doses of CDK inhibitor compounds.
Doses are adjusted for the weight of the individual dihydrochloride and trihydrochloride salts. The compounds are stored desiccated within a closed cabinet at room temperature before use. Dose levels are prepared on the morning of each study.
A single intravenous cassette dose (18 or 15 mg/kg free base) is administered. For each compound, this is equivalent to a dose of approx. 3 mg/kg free base. […] The dose is administered at a volume of 10 ml/kg (total volume of approximately 0.25 ml/animal).
Male mice (Hsd:ICR (CD-1® SD®), Harlan), each weighing approximately 20 - 30 g at the start of the study. […] Water is available ad libitum throughout the study.
Dose Administration and Sample Collection: • A single cassette dose of 5-6 compounds is administered by bolus injection into the tail vein over a 10 - 15-second period. […] Whole blood (approximately 0.6 ml/sample) is obtained by cardiac puncture and transferred to 3 ml glass tubes containing 45 U sodium heparin.
Sample Processing: Plasma: Whole blood is centrifuged at approximately 3,200 rpm for 10 min at approximately 5°C and the plasma (approx. 0.3 ml/sample) is transferred to chilled plastic vials and stored at approx. -70°C until bioanalysis.
Sample Analysis: Concentrations of each test article in plasma are quantitated by a non-validated method based on LC/MS using the following protocol.
Samples are removed from the freezer, allowed to thaw at room temperature, and vortexed to insure complete homogenization prior to sample manipulation. Samples are then prepared according to the following scheme: • 1. transfer 48 µL of plasma (blank mouse sample) into a 12 x 75 mm test tube. • 2. add 12 µL of working standard to the blank plasma for standard curve preparation. • 3. […] Inject 25 µL on LC/MS.
Data Analysis: Concentrations of Compounds in plasma of individual animals are determined by bioanalytics. […] Statistical analyses are limited to simple expressions of variation (mean and standard deviation). The plasma AUC (area-under-curve) is determined by the linear trapezoidal rule. […] All PK parameters are determined by noncompartmental methods using WinNonlin version 3.0 (Pharsight Corp). Plasma vs. time profiles are prepared by Sigma Plot (SPSS, Inc.).

[9] = CDK2 IC50, nM, GST-pRb substrate, 10 µM ATP
[10] = cyclin D1/cdk4, GST-pRb substrate, 10 µM ATP
[11] = CDK1 IC50, nM, Histone H1, 10 µM ATP
[12] = Homo sapiens, MDA-MB-435, MTT assay

Molecule | IC50 [1] | IC50 ([2]; Homo sapiens, PC-3, MTT assay) | IC50 [3, 9] | IC50 [4, 10] | IC50 [5, 11] | IC50 [6] | IC50 [7, 12] | AUC(0-inf) [8] | Cmax [8] | half-life [8] | IC50 ([2]; MTT assay, dihydrochloride) | IC50 ([7]; MTT assay, dihydrochloride) | IC50 ([2]; MTT assay) | IC50 ([3]; read-out: CDK2 IC50, GST-pRb substrate, 10 µM ATP) | IC50 [4] | IC50 ([5]; read-out: CDK1 IC50, Histone H1, 10 µM ATP) | IC50 ([7]; MTT assay)
CC(CC(=O)N1CCC(Nc2nc(N[C@H]3CC[C@H](N)CC3)nc3c2ncn3C2CCCC2)CC1)CC(C)(C)C (mixture of isomers) [compound 45, (±)-trans-1-{4-[2-(4-Amino-cyclohexylamino)-9-cyclopentyl-9H-purin-6-ylamino]-piperidin-1-yl}-3,5,5-trimethyl-hexan-1-one dihydrochloride] | 0.28 µM | 0.45 µM | 154 nM | 485 nM | 76 nM | < 0.02 µM | 0.31 µM | – | – | – | – | – | – | – | – | – | –
CCC(C(=O)N1CCC(Nc2nc(N[C@H]3CC[C@H](N)CC3)nc3c2ncn3C2CCCC2)CC1)c1ccccc1 (relative stereo) [compound 41, trans-1-{4-[2-(4-Amino-cyclohexylamino)-9-cyclopentyl-9H-purin-6-ylamino]-piperidin-1-yl}-2-phenyl-butan-1-one dihydrochloride] | 0.31 µM | 0.38 µM | 93 nM | 404 nM | 59 nM | 0.11 µM | 0.3 µM | – | – | – | – | – | – | – | – | – | –
NC1CCC(Nc2nc(NCCCc3ccccc3)c3ncn(C4CCCC4)c3n2)CC1 (stereo not drawn) [MDL 107167] | – | – | – | – | – | – | – | 531 ng·h/mL | 512 ng/mL | 1.7 h | – | – | – | – | – | – | –
N[C@H]1CC[C@H](Nc2nc(NC3CCN(C(=O)c4ccc(F)cc4)CC3)c3ncn(C4CCCC4)c3n2)CC1 [compound 1, trans-1-{4-[2-(4-Amino-cyclohexylamino)-9-cyclopentyl-9H-purin-6-ylamino]-piperidin-1-yl}-1-(4-fluoro-phenyl)-methanone dihydrochloride] | > 50 µM | 0.78 µM | 98 nM | 555 nM | 64 nM | > 50 µM | 0.69 µM | – | – | – | – | – | – | – | – | – | –
N[C@H]1CC[C@H](Nc2nc(NC3CCN(C(=O)c4ccc(C(F)(F)F)cc4)CC3)c3ncn(C4CCCC4)c3n2)CC1 [compound 2, trans-1-{4-[2-(4-Amino-cyclohexylamino)-9-cyclopentyl-9H-purin-6-ylamino]-piperidin-1-yl}-1-(4-trifluoromethyl-phenyl)-methanone dihydrochloride] | 0.15 µM | 1.17 µM | 92 nM | 427 nM | 48 nM | < 0.02 µM | 0.26 µM | – | – | – | – | – | – | – | – | – | –
N[C@H]1CC[C@H](Nc2nc(NC3CCN(C(=O)c4cnc5ccccc5n4)CC3)c3ncn(C4CCCC4)c3n2)CC1 [compound 4, trans-1-{4-[2-(4-Amino-cyclohexylamino)-9-cyclopentyl-9H-purin-6-ylamino]-piperidin-1-yl}-1-quinoxalin-2-yl-methanone dihydrochloride] | 0.33 µM | 0.72 µM | 339 nM | 641 nM | 197 nM | 0.16 µM | 0.7 µM | – | – | – | – | – | – | – | – | – | –
N[C@H]1CC[C@H](Nc2nc(NC3CCN(C(=O)c4ccc5c(c4)OCO5)CC3)c3ncn(C4CCCC4)c3n2)CC1 [compound 5, trans-1-{4-[2-(4-Amino-cyclohexylamino)-9-cyclopentyl-9H-purin-6-ylamino]-piperidin-1-yl}-1-benzo[1,3]dioxol-5-yl-methanone dihydrochloride] | 0.27 µM | 0.66 µM | – | – | – | < 0.02 µM | 0.43 µM | – | – | – | – | – | – | – | – | – | –
N[C@H]1CC[C@H](Nc2nc(NC3CCN(C(=O)c4cccc(Cl)c4)CC3)c3ncn(C4CCCC4)c3n2)CC1 [compound 6, trans-1-{4-[2-(4-Amino-cyclohexylamino)-9-cyclopentyl-9H-purin-6-ylamino]-piperidin-1-yl}-1-(3-chloro-phenyl)-methanone dihydrochloride] | 0.24 µM | – | 201 nM | 87 nM | 160 nM | < 0.02 µM | – | – | – | – | 1.2 µM | 0.44 µM | – | – | – | – | –
COc1ccccc1C(=O)N1CCC(Nc2nc(N[C@H]3CC[C@H](N)CC3)nc3c2ncn3C2CCCC2)CC1 [compound 7, trans-1-{4-[2-(4-Amino-cyclohexylamino)-9-cyclopentyl-9H-purin-6-ylamino]-piperidin-1-yl}-1-(2-methoxy-phenyl)-methanone dihydrochloride] | 1.11 µM | 2.26 µM | 487 nM | 96 nM | 399 nM | < 0.02 µM | 1.34 µM | – | – | – | – | – | – | – | – | – | –
COc1ccc(C(=O)N2CCC(Nc3nc(N[C@H]4CC[C@H](N)CC4)nc4c3ncn4C3CCCC3)CC2)cc1 [compound 8, trans-1-{4-[2-(4-Amino-cyclohexylamino)-9-cyclopentyl-9H-purin-6-ylamino]-piperidin-1-yl}-1-(4-methoxy-phenyl)-methanone dihydrochloride] | 0.18 µM | 0.86 µM | 137 nM | 711 nM | 74 nM | 0.06 µM | 0.75 µM | – | – | – | – | – | – | – | – | – | –
N[C@H]1CC[C@H](Nc2nc(NC3CCN(C(=O)c4cccs4)CC3)c3ncn(C4CCCC4)c3n2)CC1 [compound 10, trans-1-{4-[2-(4-Amino-cyclohexylamino)-9-cyclopentyl-9H-purin-6-ylamino]-piperidin-1-yl}-1-thiophen-2-yl-methanone dihydrochloride] | 0.14 µM | 1.24 µM | 57 nM | 761 nM | 49 nM | < 0.02 µM | 0.8 µM | – | – | – | – | – | – | – | – | – | –
COC(=O)c1ccc(C(=O)N2CCC(Nc3nc(N[C@H]4CC[C@H](N)CC4)nc4c3ncn4C3CCCC3)CC2)cc1 [compound 11, trans-4-(1-{4-[2-(4-Amino-cyclohexylamino)-9-cyclopentyl-9H-purin-6-ylamino]-piperidin-1-yl}-methanoyl)-benzoic acid methyl ester dihydrochloride] | 0.39 µM | 0.72 µM | 78 nM | 620 nM | 46 nM | 0.27 µM | 0.57 µM | – | – | – | – | – | – | – | – | – | –
N[C@H]1CC[C@H](Nc2nc(NC3CCN(C(=O)/C=C/c4cccc(C(F)(F)F)c4)CC3)c3ncn(C4CCCC4)c3n2)CC1 [compound 44, trans-(E)-1-{4-[2-(4-Amino-cyclohexylamino)-9-cyclopentyl-9H-purin-6-ylamino]-piperidin-1-yl}-3-(3-trifluoromethyl-phenyl)-propenone dihydrochloride] | 0.53 µM | 0.29 µM | 76 nM | – | – | 0.03 µM | 0.22 µM | – | – | – | – | – | – | – | – | – | –
CC(C)[C@@H]1CC[C@@H](C)C[C@H]1OC(=O)N1CCC(Nc2nc(N[C@H]3CC[C@H](N)CC3)nc3c2ncn3C2CCCC2)CC1 [compound 86, trans-4-[2-(4-Amino-cyclohexylamino)-9-cyclopentyl-9H-purin-6-ylamino]-piperidine-1-carboxylic acid (1R,2S,5R)-2-isopropyl-5-methyl-cyclohexyl ester dihydrochloride] | 0.4 µM | 0.69 µM | – | – | – | 0.29 µM | 0.52 µM | – | – | – | – | – | – | – | – | – | –
CC(C)n1cnc2c(NC3CCN(C(=O)Nc4ccc(OC(F)(F)F)cc4)CC3)nc(N[C@H]3CC[C@H](N)CC3)nc21 [compound 211, trans-4-[2-(4-Amino-cyclohexylamino)-9-isopropyl-9H-purin-6-ylamino]-piperidine-1-carboxylic acid (4-trifluoromethoxy-phenyl)-amide dihydrochloride] | – | 0.56 µM | 612 nM | 7000 nM | 197 nM | – | 0.69 µM | – | – | – | – | – | – | – | – | – | –
trans 1-{4-[2-(4-Amino-cyclohexylamino)-9-cyclopentyl-9H-purin-6-ylamino]-piperidin-1-yl}-3-(2,5-dimethoxy-phenyl)-propan-1-one dihydrochloride [compound 34] | – | – | – | – | – | – | – | – | – | – | – | – | 0.67 µM | 58 nM | 997 nM | 31 nM | 0.69 µM
